Measured values taken from patent US20180296456A1, “Decapeptide-12 Modulation of Sirtuin Gene Expression in Epidermal Keratinocyte Progenitors” (Escape Therapeutics, Inc., priority 2017, published 2018).

Columns and labels:
Format in all cases: cell-based
[1] = system: human epidermal progenitors; assay: Trypan blue dye exclusion cytotoxicity assay, 72 h, epidermal progenitors; settings: human, 72 h
Description: Cellular toxicity was measured using a trypan blue dye exclusion assay. Cells were cultured in 6-well plates at a density of 4×10^5 cells/well. Each well received a different concentration of decapeptide-12 or oxyresveratrol (0, 3, 10, 30, 100, 300, and 1000 μM). Plates were incubated at 37 degrees Celsius in a humidified 5 percent CO2 chamber. After 72 h, an aliquot was taken and cells counted using a hemacytometer. Cytotoxicity was measured according to the following formula: [1−(# of cells in control−# of live cells in test sample)/# of cells in control]×100 percent.

[2] = system: SIRT4; assay: SIRT4 transcription, semi-quantitative RT-PCR in human epidermal progenitors; settings: 72 h
Description: (§1) Human neonatal epidermal progenitors (Thermo Fisher Scientific, NY) were seeded in 6-well plates at a density of 2×10^5 cells/well. Each well received 2 ml of Epilife media containing 60 μM calcium chloride (Thermo Fisher Scientific, NY). Plates were incubated in a humidified chamber at 37 degrees Celsius and 5 percent CO2. Twenty-four hours later, cells were treated with various concentrations of oxyresveratrol or decapeptide-12 dissolved in PBS containing 5 percent DMSO. Control wells received vehicle only (5 percent DMSO and PBS). Final concentration of DMSO in each well was 0.05 percent.
(§2) After a 72 hour incubation period, cells were trypsinized and total RNA extracted, using RNeasy kit (Qiagen, Valencia, Calif.) according to the manufacturer's protocol.
(§3) RNA concentration was determined using nanodrop (Thermo fisher scientific, NY). Two μg of total RNA were used to synthesize cDNA using oligo dT primers and TaqMan reverse transcription reagents (Thermo fisher scientific, NY). The reaction was carried out in DNA Engine Peltier Thermal Cycler (Bio-Rad, Hercules, Calif.). The annealing temperature was 25 degrees Celsius for 10 minutes, followed by first strand synthesis at 48 degrees Celsius for 1 hour, and heat inactivation at 95 degrees Celsius for 5 minutes.
(§4) The SIRT1-7 primers (table 1) were designed using Primer3. The semi-quantitative PCR reactions were performed on a DNA Engine Peltier Thermo Cycler (Bio-Rad, Hercules, Calif.). PCR was carried under the following conditions: denaturation at 94 degrees Celsius for 2 minutes and primer extension at 54 degrees Celsius for 30 seconds in 34 cycles for SIRT 1-7 and the housekeeping gene 18S.
(§5) Samples were run and resolved on a 1.5 percent agarose gel containing 0.5 μg/ml of ethidium bromide and imaged using the FluorChem HD2 Imaging System (Protein simple, San Jose, Calif.). Densitometry analysis was carried out using the AlphaEase FC software (Protein simple, San Jose, Calif.). Intensity ratios were calculated as the intensity value for each gene divided by the intensity value of the internal control gene 18S.
(§6) The effect of the decapeptides P4, P4A, P4B, and P4C upon the transcription levels of sirtuins 1-7 was evaluated. Table 4 summarizes transcription levels for all four decapeptides with the corresponding genes, at tested concentrations of: 10, 30, 50, 100, and 300 (all in μM).

[3] = system: human epidermal progenitors; assay: in vitro; settings: 72 h
Description: Proliferation rates were determined using a TACS® MTT Cell Proliferation Kit (R&D systems, Minneapolis, Minn.). Cells were seeded at 2.5×10^4/well in 96-well plates in a humidified atmosphere with 5 percent CO2 at 37 degrees Celsius. Twenty-four hours later, decapeptide-12 or oxyresveratrol were added to the corresponding wells at varying concentrations (0, 3, 10, 30, 100, 300, and 1000 μM), and cultures were then incubated for 72 hours. The remainder of the procedure was performed following the manufacturer's protocol.
Proliferation rates for three human cell lines (epidermal progenitors, melanoblasts, and fibroblasts) were determined using a TACS® MTT Cell Proliferation Kit. Cells were seeded at 2.5×10^4/well in 96-well plates in a humidified atmosphere with 5 percent CO2 at 37 degrees Celsius. Twenty-four hours later, the decapeptides were added to the corresponding wells at varying concentrations and incubated for 72 hours. The remainder of the procedure was performed following the manufacturer's protocol.

[4] = system: SIRT5; assay: SIRT5 transcription, semi-quantitative RT-PCR in human epidermal progenitors; settings: 72 h
Description: as §1, §2, §3, §4, §5, §6

[5] = system: SIRT1; assay: SIRT1 transcription, semi-quantitative RT-PCR in human epidermal progenitors; settings: 72 h
Description: as §1, §2, §3, §4, §5, §6

[6] = system: SIRT6; assay: SIRT6 transcription, semi-quantitative RT-PCR in human epidermal progenitors; settings: 72 h
Description: as §1, §2, §3, §4, §5, §6

[7] = system: SIRT7; assay: SIRT7 transcription, semi-quantitative RT-PCR in human epidermal progenitors; settings: 72 h
Description: as §1, §2, §3, §4, §5, §6

[8] = system: SIRT2; assay: SIRT2 transcription, semi-quantitative RT-PCR in human epidermal progenitors; settings: 72 h
Description: as §1, §2, §3, §4, §5, §6

[9] = system: SIRT3; assay: SIRT3 transcription, semi-quantitative RT-PCR in human epidermal progenitors; settings: 72 h
Description: as §1, §2, §3, §4, §5, §6

Oc1cc(O)cc(/C=C/c2ccc(O)cc2O)c1 [oxyresveratrol, Oxyresveratrol, reference compound]
cell death ([1]; 100 μM): 6±1%
cell death ([1]; 1 mM): 16±2%
SIRT4 transcription increase relative to control ([2]; 3 μM): 8.1 ± 1%
SIRT4 transcription increase relative to control ([2]; 10 μM): 12.4 ± 2.1%
SIRT4 transcription increase relative to control ([2]; 30 μM): 49 ± 6.7%
SIRT4 transcription increase relative to control ([2]; 50 μM): 52.1 ± 6.6%
SIRT4 transcription increase relative to control ([2]; 100 μM): 64.1 ± 7.4%
SIRT4 transcription increase relative to control ([2]; 300 μM): 67 ± 8.7%
SIRT4 transcription increase relative to control ([2]; 500 μM): 61.2 ± 8.8%
SIRT4 transcription increase relative to control ([2]; 1000 μM): 71.3 ± 9.2%
reduced cell proliferation ([3]; 300 μM): 5±1%
reduced cell proliferation ([3]; 1 mM): 12±2%
SIRT5 transcription increase relative to control ([4]; 3 μM): 7.1 ± 1%
SIRT5 transcription increase relative to control ([4]; 10 μM): 12.3 ± 3%^
SIRT5 transcription increase relative to control ([4]; 30 μM): 45.1 ± 4.3%
SIRT5 transcription increase relative to control ([4]; 50 μM): 46 ± 4%
SIRT5 transcription increase relative to control ([4]; 100 μM): 36.1 ± 6.7%
SIRT5 transcription increase relative to control ([4]; 300 μM): 33.4 ± 7.1%
SIRT5 transcription increase relative to control ([4]; 500 μM): 35.1 ± 8.1%
SIRT5 transcription increase relative to control ([4]; 1000 μM): 37 ± 6.8%
SIRT1 transcription increase relative to control ([5]; 3 μM): 8.7 ± 1%
SIRT1 transcription increase relative to control ([5]; 10 μM): 45 ± 7.7%
SIRT1 transcription increase relative to control ([5]; 30 μM): 125±9%
SIRT1 transcription increase relative to control ([5]; 30 μM, listed as Oxy): 124.5 ± 8.6%
SIRT1 transcription increase relative to control ([5]; 50 μM): 166 ± 14.5%
SIRT1 transcription increase relative to control ([5]; 100 μM): 187 ± 16.6%
SIRT1 transcription increase relative to control ([5]; 300 μM): 187 ± 15.4%
SIRT1 transcription increase relative to control ([5]; 500 μM): 176 ± 10%^
SIRT1 transcription increase relative to control ([5]; 1000 μM): 175 ± 9%
SIRT6 transcription increase relative to control ([6]; 3 μM): 6.1 ± 1%
SIRT6 transcription increase relative to control ([6]; 10 μM): 34 ± 5.5%
SIRT6 transcription increase relative to control ([6]; 30 μM): 73±8%
SIRT6 transcription increase relative to control ([6]; 30 μM, listed as Oxy): 73 ± 8.1%
SIRT6 transcription increase relative to control ([6]; 50 μM): 81.3 ± 8.1%
SIRT6 transcription increase relative to control ([6]; 100 μM): 82.4 ± 8.4%
SIRT6 transcription increase relative to control ([6]; 300 μM): 87.4 ± 9.3%
SIRT6 transcription increase relative to control ([6]; 500 μM): 81.2 ± 12.4%
SIRT6 transcription increase relative to control ([6]; 1000 μM): 75 ± 15.1%
SIRT7 transcription increase relative to control ([7]; 3 μM): 6.3 ± 1%
SIRT7 transcription increase relative to control ([7]; 10 μM): 65 ± 2.9%
SIRT7 transcription increase relative to control ([7]; 30 μM): 95±7%
SIRT7 transcription increase relative to control ([7]; 30 μM, listed as Oxy): 95 ± 6.7%
SIRT7 transcription increase relative to control ([7]; 50 μM): 114 ± 8.1%
SIRT7 transcription increase relative to control ([7]; 100 μM): 132 ± 7.6%
SIRT7 transcription increase relative to control ([7]; 300 μM): 168 ± 4.8%
SIRT7 transcription increase relative to control ([7]; 500 μM): 177 ± 6.6%
SIRT7 transcription increase relative to control ([7]; 1000 μM): 165 ± 5.1%
SIRT2 transcription increase relative to control ([8]; 3 μM): 7.9 ± 2%
SIRT2 transcription increase relative to control ([8]; 10 μM): 14.9 ± 1.9%
SIRT2 transcription increase relative to control ([8]; 30 μM): 43.1 ± 2.4%
SIRT2 transcription increase relative to control ([8]; 50 μM): 56.3 ± 7.7%
SIRT2 transcription increase relative to control ([8]; 100 μM): 41.2 ± 8.1%
SIRT2 transcription increase relative to control ([8]; 300 μM): 39 ± 9.3%
SIRT2 transcription increase relative to control ([8]; 500 μM): 33.1 ± 12.4%
SIRT2 transcription increase relative to control ([8]; 1000 μM): 31.2 ± 12.3%
SIRT3 transcription increase relative to control ([9]; 3 μM): 10 ± 3%
SIRT3 transcription increase relative to control ([9]; 10 μM): 52.7 ± 5.1%
SIRT3 transcription increase relative to control ([9]; 30 μM): 133±5%
SIRT3 transcription increase relative to control ([9]; 30 μM, listed as Oxy): 133 ± 4.8%
SIRT3 transcription increase relative to control ([9]; 50 μM): 156 ± 9.2%
SIRT3 transcription increase relative to control ([9]; 100 μM): 148 ± 7.3%
SIRT3 transcription increase relative to control ([9]; 300 μM): 152.2 ± 9%
SIRT3 transcription increase relative to control ([9]; 500 μM): 151 ± 8.1%
SIRT3 transcription increase relative to control ([9]; 1000 μM): 151 ± 7.4%
